Assay results taken from patent publication USRE32347E, “Hypocalcaemic peptides and process for their manufacture” (Ciba-Geigy Corp., priority 1984, dated 1987).
Ends that are not written are not given here.

Legend:
[1] = tested on: calcium level of the blood; assay: calcium level of the blood in patients with increased bone turn over; assay type: in vivo, human; conditions: intravenous, intramuscular or subcutaneous injection of 0.01 to 5 mg, e.g. in 0.1 molar acetate buffer of pH 4.6
blood calcium level = assay: rat test described by Kumar et al, J. Endocrinology 33, page 470 [1965] (MRC units); assay type: in vivo; conditions: for result in the rat test according to Kumar et al., in words: compared with HT-C2 / parent peptide
Excerpt: It lowers the plasma calcium level and plasma phosphate level of the blood of mammals, as can be shown by tests on rats weighing 50 to 150 g. […] It may therefore be used for the treatment of hypercalcaemiae and of bone diseases such as Paget's disease or osteoporosis.

Row | Substance | result in the rat test according to Kumar et al., in words (blood calcium level) | further results
1 | Human calcitonin |  | calcium level of the blood [1]: lowers
2 | HT-C11: active component of human calcitonin from fractions with K=4.0 (CGNLSTCMLGTYTQDFNKFHTFPQTAIGVGAP; ends and bridges not checked; cysteine pairing not given here; UniProt P01258 85-116, looked up) |  | activity (blood calcium level; in the rat, per mg of peptide): 100-200 MRC units per mg
3 | HT-C1: the dimer of HT-C2; active component of human calcitonin (CGNLSTCMLGTYTQDFNKFHTFPQTAIGVGAP; ends and bridges not checked; also: dimer; UniProt P01258 85-116, looked up) | about as good results as the product obtained in Example 1 (HT-C2) | 
4 | HT-C1 sulfoxide: sulfoxide obtained from HT-C1 with 5% hydrogenperoxide (CGNLSTCMLGTYTQDFNKFHTFPQTAIGVGAP; ends and bridges not checked; also: dimer (HT-C1, dimer of HT-C2); UniProt P01258 85-116, looked up) | equally active | 
